Measurements reported in patent US9051273B2, “Phosphodiesterase 4 inhibitor capable of avoiding vomiting” (priority 2012, dated 2015).

What was measured:
[1] = test system: mice with scopolamine-induced cognitive deficits; assay: Morris water maze, learning and memory with scopolamine-induced cognitive deficits in mice; format: in vivo, kunming mice; conditions: administered 1 week, space exploration on fifth day, X ± S
Description: 1. The effects of the new PDE4 inhibitor III-3 on the learning and memory with scopolamine-induced cognitive deficits in mice
After being continuously administered with veh or compounds for 1 week, the behavioral tests are determined by Morris water maze. 20 minutes before test, saline is given into the blank control mice through intraperitoneal injection, while scopolamine is intraperitoneally injected to the other five groups. These mice are continuously trained for 4 days, and the space exploration experiment is performed on the fifth day for recording the latency to target quadrant, the number of crossing and retention time in the target quadrant during the test period of each mice.

[2] = biological target: PDE4D4 (Homo sapiens, UniProt Q08499); assay: Phosphodiesterase 4 inhibitory activity test (IMAP fluorescence polarization), PDE4D4; format: biochemical; conditions: Table 1
Sequence of PDE4D4 (Q08499 whole entry): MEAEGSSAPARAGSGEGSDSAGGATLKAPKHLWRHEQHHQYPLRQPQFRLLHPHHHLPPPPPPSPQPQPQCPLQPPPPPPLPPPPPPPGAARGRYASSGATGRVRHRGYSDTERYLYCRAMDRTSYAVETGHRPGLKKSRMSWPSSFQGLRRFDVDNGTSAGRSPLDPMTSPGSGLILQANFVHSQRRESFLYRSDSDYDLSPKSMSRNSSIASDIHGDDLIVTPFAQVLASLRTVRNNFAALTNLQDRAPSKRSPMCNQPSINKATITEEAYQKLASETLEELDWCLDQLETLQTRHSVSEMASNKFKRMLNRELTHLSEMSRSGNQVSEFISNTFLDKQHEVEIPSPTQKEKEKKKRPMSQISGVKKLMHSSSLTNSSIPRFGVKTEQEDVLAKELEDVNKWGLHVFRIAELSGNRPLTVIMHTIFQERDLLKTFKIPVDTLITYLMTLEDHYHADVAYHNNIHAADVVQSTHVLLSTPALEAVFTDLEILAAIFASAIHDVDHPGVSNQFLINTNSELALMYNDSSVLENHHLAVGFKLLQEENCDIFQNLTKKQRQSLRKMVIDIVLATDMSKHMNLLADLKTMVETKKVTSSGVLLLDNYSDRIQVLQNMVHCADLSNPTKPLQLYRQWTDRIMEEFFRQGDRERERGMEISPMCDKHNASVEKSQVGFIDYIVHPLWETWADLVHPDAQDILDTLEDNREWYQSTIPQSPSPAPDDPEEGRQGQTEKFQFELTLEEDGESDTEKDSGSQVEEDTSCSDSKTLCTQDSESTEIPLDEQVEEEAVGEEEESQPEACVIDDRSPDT
Description: (§1) Phosphodiesterase 4 inhibitory activity test utilizes IMAP technology, which is called immobilized metal ion affinity-based fluorescence polarization and provide a stable and accurate approach for determining the inhibitory potential of compounds.

[3] = biological target: PDE4D5 (Homo sapiens, UniProt Q08499); assay: Phosphodiesterase 4 inhibitory activity test (IMAP fluorescence polarization), PDE4D5; format: biochemical; conditions: Table 1
Sequence of PDE4D5 (Q08499 1-745 isoform Q08499-6): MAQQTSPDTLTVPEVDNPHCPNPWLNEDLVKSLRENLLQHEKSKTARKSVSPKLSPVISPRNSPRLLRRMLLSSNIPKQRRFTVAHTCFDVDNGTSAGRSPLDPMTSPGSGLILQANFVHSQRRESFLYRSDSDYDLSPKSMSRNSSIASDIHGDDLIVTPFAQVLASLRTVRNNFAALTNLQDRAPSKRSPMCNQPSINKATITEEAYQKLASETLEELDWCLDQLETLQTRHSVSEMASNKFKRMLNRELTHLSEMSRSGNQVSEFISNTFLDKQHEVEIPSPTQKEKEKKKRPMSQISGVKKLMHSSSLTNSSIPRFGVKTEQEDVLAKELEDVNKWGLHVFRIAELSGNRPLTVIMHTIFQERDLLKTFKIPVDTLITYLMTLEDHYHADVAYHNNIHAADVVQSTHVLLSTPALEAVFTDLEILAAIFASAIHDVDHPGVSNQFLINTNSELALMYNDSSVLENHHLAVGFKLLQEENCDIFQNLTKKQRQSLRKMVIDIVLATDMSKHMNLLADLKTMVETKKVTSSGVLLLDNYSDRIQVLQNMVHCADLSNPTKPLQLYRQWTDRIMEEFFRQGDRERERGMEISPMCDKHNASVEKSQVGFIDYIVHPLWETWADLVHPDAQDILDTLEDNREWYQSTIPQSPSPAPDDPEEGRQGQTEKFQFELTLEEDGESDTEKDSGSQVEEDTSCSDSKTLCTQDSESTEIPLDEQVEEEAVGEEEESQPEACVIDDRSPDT
Description: as §1

[4] = test system: beagle dogs; assay: Potential vomiting effects (emesis) in beagle dogs; format: in vivo; conditions: observation 120 minutes
Description: 2. Preliminary assessing the potential vomiting effects of new PDE4 inhibitor III-3
The potential vomiting observation time is 120 minutes after the oral administration. The latency was determined by the interval time from the oral administration of the drugs to the nausea, retching, a lot of salivation and vomiting of gastric contents. The incidence of emesis was also recorded.

[5] = scopolamine + Rolipram 0.5 mg/kg

IC50 [2] [µM] | IC50 [3] [µM] | Compound | also measured
7.82 | 8.48 | COc1ccccc1OCCNc1ccc(=O)n(Cc2ccc(OC)c(-c3cccc(Cl)c3)c2)n1 [III-3] | Latency to target quadrant (t/s) ([1]; scopolamine + III-3 0.2 mg/kg): 9.96 ± 2.32 s; Retention time in target quadrant time (t/s) ([1]; scopolamine + III-3 0.2 mg/kg): 42.78 ± 4.56 s; The number of crossing target quadrant ([1]; scopolamine + III-3 0.2 mg/kg): 6.67 ± 1.29; Incidence of emesis ([4]; 1.0 mg/kg oral): 0/3; Latency period (min) of emesis ([4]; 1.0 mg/kg oral): >120 min
– | – | COc1ccc(C2CNC(=O)C2)cc1OC1CCCC1 (centres unmarked) [Rolipram, reference compound] | Latency to target quadrant (t/s) [1, 5]: 16.09 ± 3.29 s; Retention time in target quadrant time (t/s) [1, 5]: 38.34 ± 3.65 s; The number of crossing target quadrant [1, 5]: 6.89 ± 0.59; Incidence of emesis ([4]; 0.5 mg/kg oral gavage): 6/6; Latency period (min) of emesis ([4]; 0.5 mg/kg oral gavage): 10.67 ± 2.68 min
22.4 | 8.32 | COc1ccc(Cn2ncc(Cl)c(Cl)c2=O)cc1-c1cccc(Cl)c1 [III-1] | –
137 | 110 | COc1ccc(Cn2nc(N3CCN(c4ccccc4Cl)CC3)ccc2=O)cc1-c1cccc(Cl)c1 [III-2] | –
141 | 50.9 | COc1ccc(CN2CCN(c3ccccc3Cl)CC2)cc1-c1cccc(Cl)c1 [II-2] | –
115 | 83.7 | COc1ccc(CN2CCN(c3ccccc3OC)CC2)cc1-c1cccc(Cl)c1 [II-1] | –
